Reference: PMC9716558, “A Chiral ^19F NMR Reporter of Foldamer Conformation in Bilayers” (Journal of the American Chemical Society, 2022)
Non-standard residues stand in square brackets, D forms with d. Residues, ends and D or L forms follow the SMILES beside them. *: point of attachment. d(αMeV) = CC(C)[C@@](C)(N)C(=O)O; αMeV = CC(C)[C@](C)(N)C(=O)O; X1 = C[C@@H](N*)C(F)(F)F; Cbz = O=C(OCc1ccccc1)*; Aib = CC(C)(N)C(=O)O

Test: Maximum solubility of foldamer in chloroform (saturated solution, 1H NMR)
Type: physicochemical
Details: thermodynamic, dissolved in CDCl3 until saturated; concentration by 1H NMR against a known concentration of CH2Cl2 as internal reference
Description: 9. Quantification of foldamer solubility and self-association in CHCl3
9.1 Experimental procedure (dilution)
Compounds 5d (L-αMeVal) and 5e (D-αMeVal) were dissolved in CDCl3 until saturated solutions were formed.
The initial concentration of each sample was measured using a known concentration of CH2Cl2 as an internal […]
Additional volumes of CDCl3 were added to the initial solution and the 1H NMR spectrum at each concentration […]
The binding isotherms were generated using an Excel spreadsheet macro developed by Sanderson.S7a The Solver add-in for Excel was used to calculate the best fit to the NMR data using the ‘GRG onlinear Solvin […]
The following equilibrium is used to calculate the binding isotherms:
Where Kdim is the microscopic association constant and n = 2.
The following equation is used to calculate the binding isotherm: […]
δfree is the free chemical shift of the host
δobs is the observed chemical shift […]
The concentration of the dimeric complex (H)2 is calculated iteratively by solving the following equations: […]
The concentration of free host is calculated according to the concentration difference […]
The propensity of the L-αMeVal-capped foldamer 5d and D-αMeVal-capped foldamer 5e to self-associate was investigated in chloroform by performing a dilution study,S7 which at the same time quantified the solubility of these compounds in this solvent. […]

Row | maximum solubility in CHCl3 / chloroform-d | Compound
1 | 50 mM | CC(C)[C@@](C)(NC(=O)OCc1ccccc1)C(=O)NC(C)(C)C(=O)NC(C)(C)C(=O)NC(C)(C)C(=O)NC(C)(C)C(=O)N[C@H](C)C(F)(F)F [5e, Cbz(D-MeVal)Aib4(R-TFEA)] (Cbz-[d(αMeV)][Aib][Aib][Aib][Aib]-X1)
2 | 288 mM | CC(C)[C@](C)(NC(=O)OCc1ccccc1)C(=O)NC(C)(C)C(=O)NC(C)(C)C(=O)NC(C)(C)C(=O)NC(C)(C)C(=O)N[C@H](C)C(F)(F)F [5d, Cbz(L-MeVal)Aib4(R-TFEA)] (Cbz-[αMeV][Aib][Aib][Aib][Aib]-X1)
